Measurements from ChEMBL document CHEMBL5625187, “A facile and selective derivatization approach on kynurenine-NH2 in daptomycin, leading to the discovery of hexakynomycin to combat multidrug-resistant Gram-positive pathogens especially daptomycin-resistant bacteria” (Eur J Med Chem, 2023).

Key:
Type in all cases: functional
Staphylococcus aureus [1] = test: Antibacterial activity against methicillin-susceptible Staphylococcus aureus Newman ATCC 25904 assessed as reduction in microbial growth incubated for 24 hrs by broth microdilution method
Staphylococcus aureus [2] = test: Potency index, ratio of daptomycin MIC to test compound MIC for antibacterial activity against methicillin-susceptible Staphylococcus aureus Newman ATCC 25904
Staphylococcus aureus [3] = test: Antibacterial activity against vancomycin-intermediate resistant Staphylococcus aureus Mu 50 assessed as reduction in microbial growth incubated for 24 hrs by broth microdilution method
Staphylococcus aureus [4] = test: Antibacterial activity against methicillin-resistant Staphylococcus aureus USA300 assessed as reduction in microbial growth incubated for 24 hrs by broth microdilution method
Enterococcus faecium [5] = test: Antibacterial activity against glycopeptide-resistant Enterococcus faecium Efm-HS-0649 assessed as reduction in microbial growth incubated for 24 hrs by broth microdilution method
Enterococcus faecium [6] = test: Potency index, ratio of daptomycin MIC to test compound MIC for antibacterial activity against glycopeptide-resistant Enterococcus faecium Efm-HS-0649

CCCCCCCCCC(=O)N[C@@H](Cc1c[nH]c2ccccc12)C(=O)N[C@H](CC(N)=O)C(=O)N[C@@H](CC(=O)O)C(=O)N[C@@H]1C(=O)NCC(=O)N[C@@H](CCCN)C(=O)N[C@@H](CC(=O)O)C(=O)N[C@H](C)C(=O)N[C@@H](CC(=O)O)C(=O)NCC(=O)N[C@H](CO)C(=O)N[C@@H]([C@H](C)CC(=O)O)C(=O)N[C@@H](CC(=O)c2ccccc2NCc2ccccc2)C(=O)O[C@@H]1C
MIC (Staphylococcus aureus [1]): 0.5 µg/mL
Ratio (Staphylococcus aureus [2]): 4
MIC (Staphylococcus aureus [3]): 4 µg/mL
MIC (Staphylococcus aureus [4]): 0.5 µg/mL
MIC (Enterococcus faecium [5]): 1 µg/mL
Ratio (Enterococcus faecium [6]): 4

CCCCCCCCCC(=O)N[C@@H](Cc1c[nH]c2ccccc12)C(=O)N[C@H](CC(N)=O)C(=O)N[C@@H](CC(=O)O)C(=O)N[C@@H]1C(=O)NCC(=O)N[C@@H](CCCN)C(=O)N[C@@H](CC(=O)O)C(=O)N[C@H](C)C(=O)N[C@@H](CC(=O)O)C(=O)NCC(=O)N[C@H](CO)C(=O)N[C@@H]([C@H](C)CC(=O)O)C(=O)N[C@@H](CC(=O)c2ccccc2NCCC[S+](C)CC(O)CC)C(=O)O[C@@H]1C (single isomer, unassigned)
MIC (Staphylococcus aureus [1]): > 128 µg/mL
MIC (Staphylococcus aureus [3]): > 128 µg/mL
MIC (Staphylococcus aureus [4]): > 128 µg/mL
MIC (Enterococcus faecium [5]): > 128 µg/mL

CCCCCCCCCC(=O)N[C@@H](Cc1c[nH]c2ccccc12)C(=O)N[C@H](CC(N)=O)C(=O)N[C@@H](CC(=O)O)C(=O)N[C@@H]1C(=O)NCC(=O)N[C@@H](CCCN)C(=O)N[C@@H](CC(=O)O)C(=O)N[C@H](C)C(=O)N[C@@H](CC(=O)O)C(=O)NCC(=O)N[C@H](CO)C(=O)N[C@@H]([C@H](C)CC(=O)O)C(=O)N[C@@H](CC(=O)c2ccccc2NCCCCCCCC)C(=O)O[C@@H]1C (single isomer, unassigned)
MIC (Staphylococcus aureus [1]): 1 µg/mL
Ratio (Staphylococcus aureus [2]): 2
MIC (Staphylococcus aureus [3]): 4 µg/mL
MIC (Staphylococcus aureus [4]): 1 µg/mL
MIC (Enterococcus faecium [5]): 0.5 µg/mL
Ratio (Enterococcus faecium [6]): 2

CCCCCCCCCCNc1ccccc1C(=O)C[C@@H]1NC(=O)[C@H]([C@H](C)CC(=O)O)NC(=O)[C@@H](CO)NC(=O)CNC(=O)[C@H](CC(=O)O)NC(=O)[C@@H](C)NC(=O)[C@H](CC(=O)O)NC(=O)[C@H](CCCN)NC(=O)CNC(=O)[C@@H](NC(=O)[C@H](CC(=O)O)NC(=O)[C@@H](CC(N)=O)NC(=O)[C@H](Cc2c[nH]c3ccccc23)NC(=O)CCCCCCCCC)[C@@H](C)OC1=O (single isomer, unassigned)
MIC (Staphylococcus aureus [1]): 2 µg/mL
Ratio (Staphylococcus aureus [2]): 2
MIC (Staphylococcus aureus [3]): 4 µg/mL
MIC (Staphylococcus aureus [4]): 2 µg/mL
MIC (Enterococcus faecium [5]): 2 µg/mL
Ratio (Enterococcus faecium [6]): 2

CCCCCCCCCNc1ccccc1C(=O)C[C@@H]1NC(=O)[C@H]([C@H](C)CC(=O)O)NC(=O)[C@@H](CO)NC(=O)CNC(=O)[C@H](CC(=O)O)NC(=O)[C@@H](C)NC(=O)[C@H](CC(=O)O)NC(=O)[C@H](CCCN)NC(=O)CNC(=O)[C@@H](NC(=O)[C@H](CC(=O)O)NC(=O)[C@@H](CC(N)=O)NC(=O)[C@H](Cc2c[nH]c3ccccc23)NC(=O)CCCCCCCCC)[C@@H](C)OC1=O (single isomer, unassigned)
MIC (Staphylococcus aureus [1]): 2 µg/mL
Ratio (Staphylococcus aureus [2]): 2
MIC (Staphylococcus aureus [3]): 4 µg/mL
MIC (Staphylococcus aureus [4]): 1 µg/mL
MIC (Enterococcus faecium [5]): 1 µg/mL
Ratio (Enterococcus faecium [6]): 2

CCCCCCCCCC(=O)N[C@@H](Cc1c[nH]c2ccccc12)C(=O)N[C@H](CC(N)=O)C(=O)N[C@@H](CC(=O)O)C(=O)N[C@@H]1C(=O)NCC(=O)N[C@@H](CCCN)C(=O)N[C@@H](CC(=O)O)C(=O)N[C@H](C)C(=O)N[C@@H](CC(=O)O)C(=O)NCC(=O)N[C@H](CO)C(=O)N[C@@H]([C@H](C)CC(=O)O)C(=O)N[C@@H](CC(=O)c2ccccc2NCCCC)C(=O)O[C@@H]1C (single isomer, unassigned)
MIC (Staphylococcus aureus [1]): 0.5 µg/mL
Ratio (Staphylococcus aureus [2]): 2
MIC (Staphylococcus aureus [3]): 4 µg/mL
MIC (Staphylococcus aureus [4]): 0.5 µg/mL
MIC (Enterococcus faecium [5]): 1 µg/mL
Ratio (Enterococcus faecium [6]): 2

CCCCCCCCCC(=O)N[C@@H](Cc1c[nH]c2ccccc12)C(=O)N[C@H](CC(N)=O)C(=O)N[C@@H](CC(=O)O)C(=O)N[C@@H]1C(=O)NCC(=O)N[C@@H](CCCN)C(=O)N[C@@H](CC(=O)O)C(=O)N[C@H](C)C(=O)N[C@@H](CC(=O)O)C(=O)NCC(=O)N[C@H](CO)C(=O)N[C@@H]([C@H](C)CC(=O)O)C(=O)N[C@@H](CC(=O)c2ccccc2NCCC[S+](C)[O-])C(=O)O[C@@H]1C (stereo partly specified)
MIC (Staphylococcus aureus [1]): 128 µg/mL
MIC (Staphylococcus aureus [3]): > 128 µg/mL
MIC (Staphylococcus aureus [4]): 128 µg/mL
MIC (Enterococcus faecium [5]): 128 µg/mL

CCCCCCCCCC(=O)N[C@@H](Cc1c[nH]c2ccccc12)C(=O)N[C@H](CC(N)=O)C(=O)N[C@@H](CC(=O)O)C(=O)N[C@@H]1C(=O)NCC(=O)N[C@@H](CCCN)C(=O)N[C@@H](CC(=O)O)C(=O)N[C@H](C)C(=O)N[C@@H](CC(=O)O)C(=O)NCC(=O)N[C@H](CO)C(=O)N[C@@H]([C@H](C)CC(=O)O)C(=O)N[C@@H](CC(=O)c2ccccc2NCCC)C(=O)O[C@@H]1C
MIC (Staphylococcus aureus [1]): 1 µg/mL
Ratio (Staphylococcus aureus [2]): 2
MIC (Staphylococcus aureus [3]): 4 µg/mL
MIC (Staphylococcus aureus [4]): 0.5 µg/mL
MIC (Enterococcus faecium [5]): 1 µg/mL
Ratio (Enterococcus faecium [6]): 2

CCCCCCCCCC(=O)N[C@@H](Cc1c[nH]c2ccccc12)C(=O)N[C@H](CC(N)=O)C(=O)N[C@@H](CC(=O)O)C(=O)N[C@@H]1C(=O)NCC(=O)N[C@@H](CCCN)C(=O)N[C@@H](CC(=O)O)C(=O)N[C@H](C)C(=O)N[C@@H](CC(=O)O)C(=O)NCC(=O)N[C@H](CO)C(=O)N[C@@H]([C@H](C)CC(=O)O)C(=O)N[C@@H](CC(=O)c2ccccc2NCC2CCCCC2)C(=O)O[C@@H]1C (single isomer, unassigned)
MIC (Staphylococcus aureus [1]): 1 µg/mL
MIC (Staphylococcus aureus [3]): 4 µg/mL
MIC (Staphylococcus aureus [4]): 0.5 µg/mL
MIC (Enterococcus faecium [5]): 1 µg/mL

CCCCCCCCCC(=O)N[C@@H](Cc1c[nH]c2ccccc12)C(=O)N[C@H](CC(N)=O)C(=O)N[C@@H](CC(=O)O)C(=O)N[C@@H]1C(=O)NCC(=O)N[C@@H](CCCN)C(=O)N[C@@H](CC(=O)O)C(=O)N[C@H](C)C(=O)N[C@@H](CC(=O)O)C(=O)NCC(=O)N[C@H](CO)C(=O)N[C@@H]([C@H](C)CC(=O)O)C(=O)N[C@@H](CC(=O)c2ccccc2NCCCCCCC)C(=O)O[C@@H]1C (single isomer, unassigned)
MIC (Staphylococcus aureus [1]): 0.5 µg/mL
Ratio (Staphylococcus aureus [2]): 2
MIC (Staphylococcus aureus [3]): 2 µg/mL
MIC (Staphylococcus aureus [4]): 0.25 µg/mL
MIC (Enterococcus faecium [5]): 0.25 µg/mL
Ratio (Enterococcus faecium [6]): 2

CCCCCCCCCC(=O)N[C@@H](Cc1c[nH]c2ccccc12)C(=O)N[C@H](CC(N)=O)C(=O)N[C@@H](CC(=O)O)C(=O)N[C@@H]1C(=O)NCC(=O)N[C@@H](CCCN)C(=O)N[C@@H](CC(=O)O)C(=O)N[C@H](C)C(=O)N[C@@H](CC(=O)O)C(=O)NCC(=O)N[C@H](CO)C(=O)N[C@@H]([C@H](C)CC(=O)O)C(=O)N[C@@H](CC(=O)c2ccccc2NCCCSC)C(=O)O[C@@H]1C (single isomer, unassigned)
MIC (Staphylococcus aureus [1]): 1 µg/mL
MIC (Staphylococcus aureus [3]): 4 µg/mL
MIC (Staphylococcus aureus [4]): 0.5 µg/mL
MIC (Enterococcus faecium [5]): 1 µg/mL

CCCCCCCCCC(=O)N[C@@H](Cc1c[nH]c2ccccc12)C(=O)N[C@H](CC(N)=O)C(=O)N[C@@H](CC(=O)O)C(=O)N[C@@H]1C(=O)NCC(=O)N[C@@H](CCCN)C(=O)N[C@@H](CC(=O)O)C(=O)N[C@H](C)C(=O)N[C@@H](CC(=O)O)C(=O)NCC(=O)N[C@H](CO)C(=O)N[C@@H]([C@H](C)CC(=O)O)C(=O)N[C@@H](CC(=O)c2ccccc2NC)C(=O)O[C@@H]1C
MIC (Staphylococcus aureus [1]): 1 µg/mL
Ratio (Staphylococcus aureus [2]): 2
MIC (Staphylococcus aureus [3]): 4 µg/mL
MIC (Staphylococcus aureus [4]): 1 µg/mL
MIC (Enterococcus faecium [5]): 4 µg/mL
Ratio (Enterococcus faecium [6]): 2

CCCCCCCCCC(=O)N[C@@H](Cc1c[nH]c2ccccc12)C(=O)N[C@H](CC(N)=O)C(=O)N[C@@H](CC(=O)O)C(=O)N[C@@H]1C(=O)NCC(=O)N[C@@H](CCCN)C(=O)N[C@@H](CC(=O)O)C(=O)N[C@H](C)C(=O)N[C@@H](CC(=O)O)C(=O)NCC(=O)N[C@H](CO)C(=O)N[C@@H]([C@H](C)CC(=O)O)C(=O)N[C@@H](CC(=O)c2ccccc2NCc2ccc3c(c2)CCO3)C(=O)O[C@@H]1C
MIC (Staphylococcus aureus [1]): 1 µg/mL
MIC (Staphylococcus aureus [3]): 4 µg/mL
MIC (Staphylococcus aureus [4]): 1 µg/mL
MIC (Enterococcus faecium [5]): 2 µg/mL

CCCCCCCCCC(=O)N[C@@H](Cc1c[nH]c2ccccc12)C(=O)N[C@H](CC(N)=O)C(=O)N[C@@H](CC(=O)O)C(=O)N[C@@H]1C(=O)NCC(=O)N[C@@H](CCCN)C(=O)N[C@@H](CC(=O)O)C(=O)N[C@H](C)C(=O)N[C@@H](CC(=O)O)C(=O)NCC(=O)N[C@H](CO)C(=O)N[C@@H]([C@H](C)CC(=O)O)C(=O)N[C@@H](CC(=O)c2ccccc2NCc2ccccn2)C(=O)O[C@@H]1C
MIC (Staphylococcus aureus [1]): 8 µg/mL
Ratio (Staphylococcus aureus [2]): 8
MIC (Staphylococcus aureus [3]): 32 µg/mL
MIC (Staphylococcus aureus [4]): 4 µg/mL
MIC (Enterococcus faecium [5]): 8 µg/mL
Ratio (Enterococcus faecium [6]): 8

CCCCCCCCCC(=O)N[C@@H](Cc1c[nH]c2ccccc12)C(=O)N[C@H](CC(N)=O)C(=O)N[C@@H](CC(=O)O)C(=O)N[C@@H]1C(=O)NCC(=O)N[C@@H](CCCN)C(=O)N[C@@H](CC(=O)O)C(=O)N[C@H](C)C(=O)N[C@@H](CC(=O)O)C(=O)NCC(=O)N[C@H](CO)C(=O)N[C@@H]([C@H](C)CC(=O)O)C(=O)N[C@@H](CC(=O)c2ccccc2NCC(=O)O)C(=O)O[C@@H]1C
MIC (Staphylococcus aureus [1]): 32 µg/mL
MIC (Staphylococcus aureus [3]): 128 µg/mL
MIC (Staphylococcus aureus [4]): 32 µg/mL
MIC (Enterococcus faecium [5]): 128 µg/mL

CCCCCCCCCC(=O)N[C@@H](Cc1c[nH]c2ccccc12)C(=O)N[C@H](CC(N)=O)C(=O)N[C@@H](CC(=O)O)C(=O)N[C@@H]1C(=O)NCC(=O)N[C@@H](CCCN)C(=O)N[C@@H](CC(=O)O)C(=O)N[C@H](C)C(=O)N[C@@H](CC(=O)O)C(=O)NCC(=O)N[C@H](CO)C(=O)N[C@@H]([C@H](C)CC(=O)O)C(=O)N[C@@H](CC(=O)c2ccccc2NCCC2C(=O)C=CC2=O)C(=O)O[C@@H]1C (single isomer, unassigned)
MIC (Staphylococcus aureus [1]): 128 µg/mL
MIC (Staphylococcus aureus [3]): > 128 µg/mL
MIC (Staphylococcus aureus [4]): 128 µg/mL
MIC (Enterococcus faecium [5]): 128 µg/mL

C#CC[S+](C)CCCNc1ccccc1C(=O)C[C@@H]1NC(=O)[C@H]([C@H](C)CC(=O)O)NC(=O)[C@@H](CO)NC(=O)CNC(=O)[C@H](CC(=O)O)NC(=O)[C@@H](C)NC(=O)[C@H](CC(=O)O)NC(=O)[C@H](CCCN)NC(=O)CNC(=O)[C@@H](NC(=O)[C@H](CC(=O)O)NC(=O)[C@@H](CC(N)=O)NC(=O)[C@H](Cc2c[nH]c3ccccc23)NC(=O)CCCCCCCCC)[C@@H](C)OC1=O (stereo partly specified)
MIC (Staphylococcus aureus [1]): 128 µg/mL
MIC (Staphylococcus aureus [3]): > 128 µg/mL
MIC (Staphylococcus aureus [4]): 128 µg/mL
MIC (Enterococcus faecium [5]): 128 µg/mL
